For 1 molecule, melting point results are on record in patent US10526290B2, “Bendamustine derivatives and related compounds, and medical use thereof in cancer therapy” (SYNBIAS PHARMA AG, priority 2012, dated 2020).

For orientation: melting point means the temperature, or range, at which the solid turns liquid.

`Cl.Cn1c(CCCC(=O)O)nc2ccc(N(CCCl)CCCl)cc21` had a melting point of 174 to 176.5 °C.
